Like-named read-outs stand apart in the source and are kept apart here.
Experiments:
PDGFB gene expression = assay: PDGFB lung gene expression (RT-qPCR) in the AAV-PDGFB SU5416 hypoxia rat model; assay type: in vivo; details: RT-qPCR normalized to 18S, 4 weeks treatment
Procedure: Four weeks later, 20 mg/kg of semaxanib (SU5416) was administered using intraperitoneal (i.p.) injection, and the rats were housed in a hypoxia chamber at fraction of inspired oxygen (FiO2) 10% for 3 weeks. […] Daily treatments were administered starting day 2 after removing the rats from the hypoxia chamber and were continued for 4 weeks (28 days). RNA from lung tissue was isolated using TRIzol™ reagent. The RNA concentration was measured using a Nanodrop™ 1000 Spectrophotometer. Equal amounts of RNA of each sample were transcribed to cDNA using a high-capacity cDNA Reverse Transcription kit. Reverse transcription (RT)-qPCR reactions were set up using TaqMan™ Gene Expression Master Mix and TaqMan™ primers/probes for PDGFB and 18S. The gene expression assay was carried out using a QuantStudio™ 6 Flex system. Gene expression was normalized to the expression of 18S, which was used as a housekeeping gene.

PDGFRβ = PDGFRβ (Homo sapiens, UniProt P09619); details: human lung fibroblasts
pPDGFRβ (Y1021) [1] = target: T1, pPDGFRβ (Y1021) (Rattus norvegicus, UniProt Q05030); assay: Western blot of pPDGFRβ (Y1021) in lung lysates of rats with pulmonary hypertension after inhaled Compound 1; assay type: in vivo; details: pPDGFRβ (Y1021) vs total PDGFRβ
T1 construct: Lung tissue samples were homogenized in pH 7.4 lysis buffer; from tissue; host or cells: rat lung (male SD rats)

[2] = target: T2, phosphorylated PDGFRβ (Y1021) (Rattus norvegicus, UniProt Q05030); assay: Immunohistochemistry of lung sections for pPDGFRβ in the AAV-PDGFB SU5416 hypoxia model; assay type: in vivo; details: vs V-V and TA-V
T2 construct: from tissue; host or cells: rat lung (male SD rats)
Procedure: (§1) Four weeks later, 20 mg/kg of semaxanib (SU5416) was administered using intraperitoneal (i.p.) injection, and the rats were housed in a hypoxia chamber at fraction of inspired oxygen (FiO2) 10% for 3 weeks. […] Daily treatments were administered starting day 2 after removing the rats from the hypoxia chamber and were continued for 4 weeks (28 days). Antigen retrieval was performed using heat-induced epitope retrieval. Immunohistochemistry of lung sections was performed for PDGFBB, total PDGFRα, total PDGFRβ, pPDGFRα, and pPDGFRβ. Signal detection was performed with an EXPOSE horseradish peroxidase/diaminobenzidine (HRP/DAB) kit.

[3] = target: T3, phosphorylated PDGFRα (Y751) (Rattus norvegicus, UniProt P20786); assay: Immunohistochemistry of lung sections for pPDGFRα in the AAV-PDGFB SU5416 hypoxia model; assay type: in vivo; details: vs V-V and TA-V
T3 construct: from tissue; host or cells: rat lung sections (male SD rats)
Procedure: as §1

pPDGFRβ (Y1021) [4] = target: T1, pPDGFRβ (Y1021); assay: Western blot of lung pPDGFRβ (Y1021) in the AAV-PDGFB SU5416 hypoxia model; assay type: in vivo; details: vs V-V and TA-V, total PDGFRβ and β actin controls
Procedure: Four weeks later, 20 mg/kg of semaxanib (SU5416) was administered using intraperitoneal (i.p.) injection, and the rats were housed in a hypoxia chamber at fraction of inspired oxygen (FiO2) 10% for 3 weeks. […] Daily treatments were administered starting day 2 after removing the rats from the hypoxia chamber and were continued for 4 weeks (28 days). […] Lysates were normalized and separated on 7.5% or 12% polyacrylamide gels and transferred to nitrocellulose membranes. After blocking, the membranes were probed with one of the following antibodies: anti-PDGFRβ, anti-phospho ([…])-PDGFRβ, pMYPT, MYPT, pSTAT3, or STAT3. The samples were incubated overnight on a shaker, followed by a 1 hour incubation with secondary antibodies conjugated with HRP. Bound antibodies were detected by chemiluminescence using an enhanced chemiluminescence (ECL) detection system, and quantified by densitometry using a Licor C-Digit® Blot Scanner.

in vivo = details: male, Sprague Dawley, rat
[5] = rat, in vivo, 0.4 mg/kg
[6] = test system: AAV-PDGFB overexpression SU5416 hypoxia rat model of PH; assay: AAV-PDGFB SU5416 hypoxia study: RVSP, right ventricular hypertrophy, lumen/media ratio; assay type: in vivo
[7] = test system: PDGFRβ isoform, PDGFRα isoform; details: background statement; cited from earlier work
[8] = test system: patients with advanced PAH; details: background statement; cited from earlier work
[9] = test system: rat monocrotaline model of PAH; details: background statement; cited from earlier work
[10] = inhaled or intranasal, 0.4 mg/kg

T1 sequence (Q05030 32-1097): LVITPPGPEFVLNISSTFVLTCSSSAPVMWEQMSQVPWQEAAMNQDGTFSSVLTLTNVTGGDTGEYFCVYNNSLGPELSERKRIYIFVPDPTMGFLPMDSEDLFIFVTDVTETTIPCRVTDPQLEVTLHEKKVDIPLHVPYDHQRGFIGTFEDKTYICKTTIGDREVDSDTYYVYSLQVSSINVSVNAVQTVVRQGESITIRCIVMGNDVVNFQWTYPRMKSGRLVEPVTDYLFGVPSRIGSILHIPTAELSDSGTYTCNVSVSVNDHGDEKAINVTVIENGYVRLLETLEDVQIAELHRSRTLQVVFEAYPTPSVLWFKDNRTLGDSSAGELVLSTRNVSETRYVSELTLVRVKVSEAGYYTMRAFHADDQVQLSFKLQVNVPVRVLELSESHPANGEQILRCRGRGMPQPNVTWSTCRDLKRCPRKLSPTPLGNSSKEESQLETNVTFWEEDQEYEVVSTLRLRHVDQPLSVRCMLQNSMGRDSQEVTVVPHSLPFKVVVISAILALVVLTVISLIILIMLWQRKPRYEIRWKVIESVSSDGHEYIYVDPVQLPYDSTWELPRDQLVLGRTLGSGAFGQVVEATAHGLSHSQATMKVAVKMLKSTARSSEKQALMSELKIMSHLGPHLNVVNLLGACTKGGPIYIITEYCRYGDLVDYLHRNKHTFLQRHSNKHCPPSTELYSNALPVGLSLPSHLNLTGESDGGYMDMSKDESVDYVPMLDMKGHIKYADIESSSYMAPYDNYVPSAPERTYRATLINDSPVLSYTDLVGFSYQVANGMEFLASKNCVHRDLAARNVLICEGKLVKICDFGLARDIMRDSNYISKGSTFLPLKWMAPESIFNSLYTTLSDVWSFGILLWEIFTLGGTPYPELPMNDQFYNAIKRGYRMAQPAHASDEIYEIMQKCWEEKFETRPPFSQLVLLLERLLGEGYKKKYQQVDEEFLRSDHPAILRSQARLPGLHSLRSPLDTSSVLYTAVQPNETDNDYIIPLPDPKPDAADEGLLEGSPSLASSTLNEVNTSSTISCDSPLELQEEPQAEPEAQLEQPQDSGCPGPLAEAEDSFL
T3 sequence (P20786 24-1088): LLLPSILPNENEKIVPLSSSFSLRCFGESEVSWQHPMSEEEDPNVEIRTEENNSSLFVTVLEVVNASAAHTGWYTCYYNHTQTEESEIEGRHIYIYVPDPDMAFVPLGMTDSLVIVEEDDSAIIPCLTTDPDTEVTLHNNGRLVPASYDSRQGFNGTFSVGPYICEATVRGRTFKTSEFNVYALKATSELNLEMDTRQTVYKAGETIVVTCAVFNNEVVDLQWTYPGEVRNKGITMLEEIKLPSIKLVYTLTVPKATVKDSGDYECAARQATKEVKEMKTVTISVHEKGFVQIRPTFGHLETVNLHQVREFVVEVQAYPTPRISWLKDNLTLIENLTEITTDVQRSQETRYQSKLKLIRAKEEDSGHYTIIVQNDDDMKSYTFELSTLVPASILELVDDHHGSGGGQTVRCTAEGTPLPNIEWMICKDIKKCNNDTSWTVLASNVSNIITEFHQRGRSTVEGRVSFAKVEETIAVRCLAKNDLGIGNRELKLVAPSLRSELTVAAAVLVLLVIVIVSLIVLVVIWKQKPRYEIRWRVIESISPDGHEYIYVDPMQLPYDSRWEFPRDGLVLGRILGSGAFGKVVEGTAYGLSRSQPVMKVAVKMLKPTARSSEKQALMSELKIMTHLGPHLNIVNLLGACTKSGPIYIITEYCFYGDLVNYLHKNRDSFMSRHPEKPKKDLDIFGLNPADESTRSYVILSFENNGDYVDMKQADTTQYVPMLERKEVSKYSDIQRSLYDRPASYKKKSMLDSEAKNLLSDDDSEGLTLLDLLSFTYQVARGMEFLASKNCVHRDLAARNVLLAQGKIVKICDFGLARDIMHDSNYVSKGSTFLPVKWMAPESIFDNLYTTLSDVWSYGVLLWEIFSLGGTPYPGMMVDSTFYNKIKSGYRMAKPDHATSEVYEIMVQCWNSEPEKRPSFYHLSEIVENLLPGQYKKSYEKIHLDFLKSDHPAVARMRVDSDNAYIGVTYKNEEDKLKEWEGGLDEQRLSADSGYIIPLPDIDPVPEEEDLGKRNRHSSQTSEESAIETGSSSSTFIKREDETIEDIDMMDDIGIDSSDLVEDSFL
T2 sequence (Q05030 32-1097): as the sequence (Q05030 32-1097) above
Sequence of PDGFRβ (P09619 33-1106): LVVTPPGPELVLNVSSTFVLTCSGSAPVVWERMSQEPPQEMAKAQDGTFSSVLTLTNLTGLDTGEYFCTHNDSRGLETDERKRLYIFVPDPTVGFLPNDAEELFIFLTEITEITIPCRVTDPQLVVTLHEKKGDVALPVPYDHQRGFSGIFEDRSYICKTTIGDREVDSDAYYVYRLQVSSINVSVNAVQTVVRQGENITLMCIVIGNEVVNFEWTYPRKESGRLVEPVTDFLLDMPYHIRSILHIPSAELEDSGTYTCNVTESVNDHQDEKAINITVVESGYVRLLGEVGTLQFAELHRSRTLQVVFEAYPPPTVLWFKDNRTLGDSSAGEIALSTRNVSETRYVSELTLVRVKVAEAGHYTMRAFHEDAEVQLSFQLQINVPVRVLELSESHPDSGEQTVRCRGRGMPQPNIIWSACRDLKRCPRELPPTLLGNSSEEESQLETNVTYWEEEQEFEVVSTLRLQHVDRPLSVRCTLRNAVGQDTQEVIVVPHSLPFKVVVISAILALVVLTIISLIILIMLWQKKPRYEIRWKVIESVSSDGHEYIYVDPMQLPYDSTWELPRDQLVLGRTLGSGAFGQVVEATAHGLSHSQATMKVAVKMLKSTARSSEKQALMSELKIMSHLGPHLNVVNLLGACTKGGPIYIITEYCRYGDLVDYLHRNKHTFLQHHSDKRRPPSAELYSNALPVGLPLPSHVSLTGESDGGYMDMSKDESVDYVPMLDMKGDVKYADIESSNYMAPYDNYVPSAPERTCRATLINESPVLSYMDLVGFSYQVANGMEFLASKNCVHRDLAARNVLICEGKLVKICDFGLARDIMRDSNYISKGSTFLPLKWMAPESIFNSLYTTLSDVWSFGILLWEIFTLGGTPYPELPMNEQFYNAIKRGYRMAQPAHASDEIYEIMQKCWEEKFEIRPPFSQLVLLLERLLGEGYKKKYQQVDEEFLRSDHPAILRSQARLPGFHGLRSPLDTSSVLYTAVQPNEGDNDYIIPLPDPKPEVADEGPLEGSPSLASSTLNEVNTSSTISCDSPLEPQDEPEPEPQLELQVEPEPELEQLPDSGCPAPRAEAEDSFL

SMILES: COc1ccc(-c2cncc(N[C@@H](C)c3cccc(NC(=O)c4cncc(C)c4)c3)n2)cc1OC [Compound 1]
- effect on levels of PDGFB gene expression (PDGFB gene expression): did not affect levels of PDGFB gene expression significantly
- fold more potent than imatinib at inhibiting PDGFB-stimulated phosphorylation of PDGFRβ (PDGFRβ): about 2.5 fold
- pPDGFRβ levels in lung compared to animals treated with the vehicle (pPDGFRβ (Y1021) [1]): decreased pPDGFRβ levels
- phosphorylated PDGFRβ (Y1021) in the lungs [2]: decrease
- phosphorylated PDGFRα (Y751) in the lungs [3]: decrease
- pPDGFRβ (Y1021) in the lungs (pPDGFRβ (Y1021) [4]): decreases
- Kp (in vivo; 0.4 mg/kg): 20 to 80
- AUC(0-inf) (in vivo; [10]): 2130 ng·h/mL
- AUC(0-t) (in vivo; [10]): 1940 ng·h/mL
- half-life (in vivo; inhaled or intranasal, terminal half-life in lung (t1/2β)): 6.43 h
- half-life (in vivo; inhaled or intranasal, terminal half-life in plasma): 2.08 h
- maximum arterial and venous average concentrations ([5]; male, Sprague Dawley): about 1 μg/mL
- time after administration at which average arterial and venous concentrations reached zero ([5]; male, Sprague Dawley): about 400 minutes
- AUC(0-inf) ([5]; inhaled or intranasal): 25403.578 µg·min/g
- AUC(0-t) ([5]; inhaled or intranasal): 23583.976 µg·min/g
- lumen/media ratio of pulmonary arterioles ([6]; H&E lung sections, four weeks treatment, mean±SEM): 0.76±0.04
- AVG RVSP ([6]; Table 4, four weeks treatment): 44.30 mm Hg
- % Reduction RVSP ([6]; Table 4, vs V-V): 29%
- decrease of RV/(LV+IVS) ratio compared to the vehicle (V-V) group ([6]; four weeks treatment): 25%
- decrease of RVSP compared to vehicle (V-V) ([6]; four weeks treatment): 29%
- RVSP ([6]; four weeks, tadalafil 10 mg/kg and ambrisentan 10 mg/kg gavage once daily, Compound 1 0.6 mg/kg inhaled twice daily, mean±SEM): 44.3±1.9 mm Hg
- right ventricular hypertrophy, RV/(LV+IVS) ([6]; ratio of RV weight to LV plus interventricular septum weight, four weeks treatment, mean±SEM): 0.36±0.01

SMILES: Cc1ccc(NC(=O)c2ccc(CN3CCN(C)CC3)cc2)cc1Nc1nccc(-c2cccnc2)n1 [imatinib]
- potency against PDGFR isoforms [7]: less potent against the PDGFRβ isoform than the PDGFRα isoform
- cardiopulmonary hemodynamics [8]: improves
- right ventricular systolic pressure (RVSP) [9]: decreases
- survival [9]: improves survival
